What is called Tmax is the time from dosing to the highest level. One may read the fraction unbound as the share of the substance not bound to proteins or other matrix. Low readings indicate little free substance, high ones much free substance. The Cmax is the peak of the concentration-time curve.

From paper PMC3674958 (Investigational new drugs, 2012) come the findings set out here.

Data set [1] is described as follows: Plasma pharmacokinetics of irinotecan and its metabolites. To be noted: human, iv.
The subject of a further data set is plasma proteins. In words: Sorafenib fraction unbound in patient plasma by equilibrium dialysis. Particulars: human. The format is in vitro ADME. A general note: In equilibrium dialysis only unbound substance equilibrates across the membrane.
Another data set in a line: clinical. Particulars: human, in vivo, 400 mg.

In the case of `CCc1c2c(nc3ccc(OC(=O)N4CCC(N5CCCCC5)CC4)cc13)-c1cc3c(c(=O)n1C2)COC(=O)[C@]3(O)CC` [Irinotecan], the Tmax in data set [1] (100 mg/m2) and in data set [1] (120 mg/m2) was 1.4 h in each case.

The compound `CNC(=O)c1cc(Oc2ccc(NC(=O)Nc3ccc(Cl)c(C(F)(F)F)c3)cc2)ccn1` [Sorafenib, reference compound] came in with an unbound share (fraction unbound) with plasma proteins of 0.0027 to 0.0067. The compound further registered a Cmax in “clinical” (Cmax) of 4710 ± 3520 ng/mL. In the data set “clinical” (Tmax), the Tmax stood at 4.1 h.
